Measured values published in ChEMBL document CHEMBL1641567, “Oxidative inactivation of the lymphoid tyrosine phosphatase mediated by both general and active site directed NO donors” (Bioorg Med Chem Lett, 2011).
Activity calls are given as the source filed them. The rule behind the calls is not given here. Starred links: 1 amine or outer side, 2 acyl side, 3 side chain; linkers in the order of their positions; H or OH if unused. Non-standard residues stand in square brackets, D forms with d. Residues, ends and D or L forms follow the SMILES beside them. X1 = O=NSCC[C@H](N[*:1])C(=O)[*:2]

Experiments:
[1] = target: T1, Tyrosine-protein phosphatase non-receptor type 22 (Homo sapiens) (UniProt Q9Y2R2); test: Oxidative inactivation of lymphoid tyrosine phosphatase at 1 to 100 uM by DiFMUP assay; conditions: TDE = time-dependent effect
T1 sequence (whole entry): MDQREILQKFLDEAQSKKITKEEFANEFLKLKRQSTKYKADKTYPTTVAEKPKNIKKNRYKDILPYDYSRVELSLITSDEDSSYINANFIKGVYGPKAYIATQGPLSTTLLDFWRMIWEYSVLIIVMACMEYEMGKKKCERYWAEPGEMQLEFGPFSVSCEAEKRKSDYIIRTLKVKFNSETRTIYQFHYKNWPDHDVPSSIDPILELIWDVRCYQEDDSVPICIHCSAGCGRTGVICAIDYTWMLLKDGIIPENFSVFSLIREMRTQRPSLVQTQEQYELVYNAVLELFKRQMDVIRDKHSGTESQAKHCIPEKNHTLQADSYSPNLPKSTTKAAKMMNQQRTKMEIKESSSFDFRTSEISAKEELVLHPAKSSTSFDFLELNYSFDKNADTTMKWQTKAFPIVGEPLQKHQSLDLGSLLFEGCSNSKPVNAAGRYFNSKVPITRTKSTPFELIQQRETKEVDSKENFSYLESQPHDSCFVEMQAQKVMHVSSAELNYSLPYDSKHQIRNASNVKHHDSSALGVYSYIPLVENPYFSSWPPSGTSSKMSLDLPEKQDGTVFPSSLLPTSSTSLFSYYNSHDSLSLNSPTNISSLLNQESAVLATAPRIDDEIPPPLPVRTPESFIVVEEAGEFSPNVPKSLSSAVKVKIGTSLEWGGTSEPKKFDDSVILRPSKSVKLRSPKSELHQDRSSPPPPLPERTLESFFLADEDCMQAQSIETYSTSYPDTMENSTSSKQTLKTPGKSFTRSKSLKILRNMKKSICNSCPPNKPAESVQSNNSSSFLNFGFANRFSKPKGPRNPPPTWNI

[2] = target: T1, Tyrosine-protein phosphatase non-receptor type 22 (Homo sapiens); test: (§1) Oxidative inactivation of lymphoid tyrosine phosphatase by DiFMUP assay
[3] = target: T2, Tyrosine-protein phosphatase non-receptor type 22 (Homo sapiens, UniProt Q9Y2R2); test: as §1
T2 sequence (Q9Y2R2 whole entry): T1 sequence (whole entry)

[4] = target: T1, Tyrosine-protein phosphatase non-receptor type 22 (Homo sapiens); test: Oxidative inactivation of lymphoid tyrosine phosphatase by DiFMUP assay in presence of L-cysteine
[5] = target: T1, Tyrosine-protein phosphatase non-receptor type 22 (Homo sapiens); test: Oxidative competitive inactivation of lymphoid tyrosine phosphatase by Lineweaver-Burk plot
[6] = target: T1, Tyrosine-protein phosphatase non-receptor type 22 (Homo sapiens); test: Oxidative inactivation of lymphoid tyrosine phosphatase assessed as NO release by ESI-MS spectrum

Activity [1]: tde | Activity [2]: Dose-dependent effect | Kinact [2]: 0.0472 min⁻¹ | Ki [3]: 7 µM | Activity [4]: inactive | Activity [5]: Active | Activity [6]: Active
SMILES: CC[C@H](C)[C@H](NC(=O)[C@H](CC(C)C)NC(=O)[C@H](CCCNC(=N)N)NC(=O)[C@H](C)NC(C)=O)C(=O)N[C@@H](CCC(=O)O)C(=O)N[C@@H](CC(=O)O)C(=O)N[C@@H](CC(N)=O)C(=O)N[C@@H](CCC(=O)O)C(=O)N[C@@H](CCSN=O)C(=O)N[C@H](C(=O)N[C@@H](C)C(=O)N[C@@H](CCCNC(=N)N)C(=O)N[C@@H](CCC(=O)O)C(=O)NCC(N)=O)[C@@H](C)O (Ac-ARLIEDNE[X1]TAREG-NH2)
